From patent US9493430B2, “Biaryl- or heterocyclic biaryl-substituted cyclohexene derivative compounds as CETP inhibitors” (CHONG KUN DANG PHARMACEUTICAL CORP., priority 2013, dated 2016)
pIC50: −log10 of the molar value.

Experiments:
[1] = system: golden Syrian hamsters; assay: Test for anti-hyperlipidemic effect in hamsters (in vivo); conditions: Mesocricetus auratus, po, 3 mg/kg orally for 5 days, blood 4 hours after final administration, vs control; for inhibition in vivo at 3 mg/kg: read-out: Decrease in LDL-c (%); for change in vivo at 3 mg/kg: read-out: Increase in HDL-c (%)
Excerpt: Test for Anti-Hyperlipidemic Effect in Hamsters (In Vivo)
In this test, 8-week-old male golden Syrian hamsters were used. The breeding room was maintained at constant temperature and constant humidity and a 12-hr light/12-hr dark cycle. The animals were allowed access to feed and water ad libitum.
2. Anti-Hyperlipidemic Test in Hamsters
The test animals were acclimated for 1 week before use in the test. The test animals were divided according to body weight into several groups, each consisting of 5-8 animals, and were then administered orally with a dose of 3 mg/kg. A solvent control and a CETP inhibitor were dissolved in imwitor 742: tween 80 (1:1) and administered orally for 5 days, and at 4 hours after the final administration, blood was collected from the heart. The collected blood was centrifuged at 3000 rpm for 15 minutes, and the separated serum was measured for HDL-Cholesterol (Biosystem) and LDL-Cholesterol (Biosystem) using a biochemical analysis instrument (ILab 300 plus, Instrumentation Laboratory).
(§1) 3. Statistical Processing
All test results were expressed as Mean±SEM, and to evaluate the effect of each test group, each test group was compared with the control group using one-way ANOVA test (Dunnett's test, p<0.001).

[2] = target: CETP (Homo sapiens (Human), UniProt P11597); assay: Test for inhibition of cholesteryl ester transfer (in vitro); assay type: biochemical; conditions: human plasma as CETP source, LDL from healthy persons as acceptor, rHDL-agarose donor, 37° C.
Excerpt: Test for Inhibition of Cholesteryl Ester Transfer (In Vitro)
1. Construction of Cholesteryl Ester Donor
To construct a cholesteryl ester donor to be used in the test, radiolabeled recombinant HDL containing […] (GE healthcare, TRK886, 3.5 μCi/mg of apoA-1) and apoA-1 was synthesized. Then, rHDL-agarose having the recombinant HDL immobilized thereon by CNBr-activated Sepharose 4B (Amersham Biosciences, Sweden) resin was used in the test.
2. Cholesteryl Ester Transfer Test
As a protein source for cholesteryl ester transfer, plasma from healthy persons was used, and as a cholesteryl ester receptor, LDL from healthy persons was used. Samples were treated with each test compound to final concentrations of 16, 80, 400, 2000 and 10000 nM and analyzed in duplicate. For the cholesteryl ester transfer test, 20 μl of plasma, 50 μl of LDL (0.25 mg/ml) and 50 μl of rHDL-agarose (0.25 mg/ml) were added, and a solution containing a test compound was added, followed by reaction at 37° C. Then, centrifugation was performed at 4° C. for 3 minutes to stop the reaction, and 150 μl of the supernatant was taken and transferred to a 96-well plate for radioactivity measurement, and the radioactivity of the plate was measured with a beta-ray detector.
as §1
The ratio of [^3H]-cholesteryl oleate from HDL to LDL was calculated and used as a result value, and from the result value, IC50 value was calculated using GraphPad Prism 5.0.

Chain of CETP (P11597 18-493): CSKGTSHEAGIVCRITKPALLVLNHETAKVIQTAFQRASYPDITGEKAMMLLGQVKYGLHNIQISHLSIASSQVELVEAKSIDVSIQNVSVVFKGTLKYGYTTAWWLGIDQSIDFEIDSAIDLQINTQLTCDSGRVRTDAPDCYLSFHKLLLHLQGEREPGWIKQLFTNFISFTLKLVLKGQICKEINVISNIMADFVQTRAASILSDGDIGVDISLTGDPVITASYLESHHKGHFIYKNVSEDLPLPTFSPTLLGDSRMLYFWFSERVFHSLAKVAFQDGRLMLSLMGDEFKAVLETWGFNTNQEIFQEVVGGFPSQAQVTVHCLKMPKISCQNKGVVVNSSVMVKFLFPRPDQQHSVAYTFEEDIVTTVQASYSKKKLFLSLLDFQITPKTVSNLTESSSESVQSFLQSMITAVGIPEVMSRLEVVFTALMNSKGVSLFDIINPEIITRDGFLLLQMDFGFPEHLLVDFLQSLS

Row | Compound | inhibition in vivo at 3 mg/kg [1] [%] | change in vivo at 3 mg/kg [1] [%] | pIC50 [2]
1 | COc1ccc(-c2c(F)cc(C(=O)O)cc2F)cc1C1=C(CN2C(=O)O[C@H](c3cc(C(F)(F)F)cc(C(F)(F)F)c3)[C@@H]2C)CC(C)(C)CC1 [Compound 593, 3′-(2-(((4S,5R)-5-(3,5-bis(trifluoromethyl)phenyl)-4-methyl-2-oxooxazolidin-3-yl)methyl)-4,4-dimethylcyclohex-1-enyl)-2,6-difluoro-4′-methoxybiphenyl-4-carboxylic acid] | 29 | 61 | 8.82
2 | C[C@H]1[C@@H](c2cc(C(F)(F)F)cc(C(F)(F)F)c2)OC(=O)N1CC1=C(c2cc(-c3ccc(C(=O)O)cc3C(F)(F)F)ccc2F)CCC(C)(C)C1 [Compound 695, 3′-(2-(((4S,5R)-5-(3,5-bis(trifluoromethyl)phenyl)-4-methyl-2-oxooxazolidin-3-yl)methyl)-4,4-dimethylcyclohex-1-enyl)-4′-fluoro-2-(trifluoromethyl)biphenyl-4-carboxylic acid] | 35 | 71 | 8.19
3 | COc1ncc(-c2ccc(C(=O)O)cc2F)cc1C1=C(CN2C(=O)O[C@H](c3cc(C(F)(F)F)cc(C(F)(F)F)c3)[C@@H]2C)CC(C)(C)CC1 [Compound 586, 4-(3-(2-(((4S,5R)-5-(3,5-bis(trifluoromethyl)phenyl)-4-methyl-2-oxooxazolidin-3-yl)methyl)-4,4-dimethylcyclohex-1-enyl)-2-methoxypyridin-5-yl)-3-fluorobenzoic acid] | 34 | 37 | 7.89
4 | Cc1cc(C(=O)O)ccc1-c1cc(F)cc(C2=C(CN3C(=O)O[C@H](c4cc(C(F)(F)F)cc(C(F)(F)F)c4)[C@@H]3C)CC(C)(C)CC2)c1 [Compound 650, 3′-(2-(((4S,5R)-5-(3,5-bis(trifluoromethyl)phenyl)-4-methyl-2-oxooxazolidin-3-yl)methyl)-4,4-dimethylcyclohex-1-enyl)-5′-fluoro-2-methylbiphenyl-4-carboxylic acid] | 24 | 50 | 7.92
5 | COc1ncc(-c2ccc(C(=O)O)cc2C)cc1C1=C(CN2C(=O)O[C@H](c3cc(C(F)(F)F)cc(C(F)(F)F)c3)[C@@H]2C)CC(C)(C)CC1 [Compound 557, 4-(3-(2-(((4S,5R)-5-(3,5-bis(trifluoromethyl)phenyl)-4-methyl-2-oxooxazolidin-3-yl)methyl)-4,4-dimethylcyclohex-1-enyl)-2-methoxypyridin-5-yl)-3-methylbenzoic acid] | 39 | 77 | 8.27
6 | COc1ccc(-c2ccc(C(=O)O)cc2Cl)cc1C1=C(CN2C(=O)O[C@H](c3cc(C(F)(F)F)cc(C(F)(F)F)c3)[C@@H]2C)CC(C)(C)CC1 [Compound 643, 3′-(2-(((4S,5R)-5-(3,5-bis(trifluoromethyl)phenyl)-4-methyl-2-oxooxazolidin-3-yl)methyl)-4,4-dimethylcyclohex-1-enyl)-2-chloro-4′-methoxybiphenyl-4-carboxylic acid] | 17 | 68 | 8.14
7 | COc1cc(F)c(-c2ccc(C(=O)O)cc2F)cc1C1=C(CN2C(=O)O[C@H](c3cc(C(F)(F)F)cc(C(F)(F)F)c3)[C@@H]2C)CC(C)(C)CC1 [Compound 661, 5′-(2-(((4S,5R)-5-(3,5-bis(trifluoromethyl)phenyl)-4-methyl-2-oxooxazolidin-3-yl)methyl)-4,4-dimethylcyclohex-1-enyl)-2,2′-difluoro-4′-methoxybiphenyl-4-carboxylic acid] | 20 | 53 | 8.60
8 | Cc1cc(C(=O)O)ccc1-c1cc(C2=C(CN3C(=O)O[C@H](c4cc(C(F)(F)F)cc(C(F)(F)F)c4)[C@@H]3C)CC(C)(C)CC2)ccc1F [Compound 681, 5′-(2-(((4S,5R)-5-(3,5-bis(trifluoromethyl)phenyl)-4-methyl-2-oxooxazolidin-3-yl)methyl)-4,4-dimethylcyclohex-1-enyl)-2′-fluoro-2-methylbiphenyl-4-carboxylic acid] | 29 | 25 | 8.18
9 | COC(=O)c1cccc(-c2ccc(OC)c(C3=C(CN4C(=O)O[C@H](c5cc(C(F)(F)F)cc(C(F)(F)F)c5)[C@@H]4C)CC(C)(C)CC3)c2)c1 [Compound 567, methyl 3′-(2-(((4S,5R)-5-(3,5-bis(trifluoromethyl)phenyl)-4-methyl-2-oxooxazolidin-3-yl)methyl)-4,4-dimethylcyclohex-1-enyl)-4′-methoxybiphenyl-3-carboxylate] | – | – | 7.25
10 | COc1cc(F)c(-c2ccc(C(=O)O)cc2)cc1C1=C(CN2C(=O)O[C@H](c3cc(C(F)(F)F)cc(C(F)(F)F)c3)[C@@H]2C)CC(C)(C)CC1 [Compound 575, 5′-(2-(((4S,5R)-5-(3,5-bis(trifluoromethyl)phenyl)-4-methyl-2-oxooxazolidin-3-yl)methyl)-4,4-dimethylcyclohex-1-enyl)-2′-fluoro-4′-methoxybiphenyl-4-carboxylic acid] | – | – | 7.84
11 | COc1cc(C)c(-c2ccc(C(=O)O)cc2C)cc1C1=C(CN2C(=O)O[C@H](c3cc(C(F)(F)F)cc(C(F)(F)F)c3)[C@@H]2C)CC(C)(C)CC1 [Compound 684, 5′-(2-(((4S,5R)-5-(3,5-bis(trifluoromethyl)phenyl)-4-methyl-2-oxooxazolidin-3-yl)methyl)-4,4-dimethylcyclohex-1-enyl)-4′-methoxy-2,2′-dimethylbiphenyl-4-carboxylic acid] | – | – | 8.72
12 | COC(=O)c1ccc(-c2cc(C3=C(CN4C(=O)O[C@H](c5cc(C(F)(F)F)cc(C(F)(F)F)c5)[C@@H]4C)CC(C)(C)CC3)c(OC)cc2F)c(C)c1 [Compound 572, methyl 5′-(2-(((4S,5R)-5-(3,5-bis(trifluoromethyl)phenyl)-4-methyl-2-oxooxazolidin-3-yl)methyl)-4,4-dimethylcyclohex-1-enyl)-2′-fluoro-4′-methoxy-2-methylbiphenyl-4-carboxylate] | – | – | 7.82
13 | COc1ccc(-c2ccc(C(=O)O)c(F)c2F)cc1C1=C(CN2C(=O)O[C@H](c3cc(C(F)(F)F)cc(C(F)(F)F)c3)[C@@H]2C)CC(C)(C)CC1 [Compound 592, 3′-(2-(((4S,5R)-5-(3,5-bis(trifluoromethyl)phenyl)-4-methyl-2-oxooxazolidin-3-yl)methyl)-4,4-dimethylcyclohex-1-enyl)-2,3-difluoro-4′-methoxybiphenyl-4-carboxylic acid] | – | – | 8.08
14 | C[C@H]1[C@@H](c2cc(C(F)(F)F)cc(C(F)(F)F)c2)OC(=O)N1CC1=C(c2cc(-c3ccc(C(=O)O)cc3C(F)(F)F)ccc2Cl)CCC(C)(C)C1 [Compound 729, 3′-(2-(((4S,5R)-5-(3,5-bis(trifluoromethyl)phenyl)-4-methyl-2-oxooxazolidin-3-yl)methyl)-4,4-dimethylcyclohex-1-enyl)-4′-chloro-2-(trifluoromethyl)biphenyl-4-carboxylic acid] | – | – | 8.12
15 | COc1cc(C(F)(F)F)c(-c2ccc(C(=O)O)cc2)cc1C1=C(CN2C(=O)O[C@H](c3cc(C(F)(F)F)cc(C(F)(F)F)c3)[C@@H]2C)CC(C)(C)CC1 [Compound 612, 5′-(2-(((4S,5R)-5-(3,5-bis(trifluoromethyl)phenyl)-4-methyl-2-oxooxazolidin-3-yl)methyl)-4,4-dimethylcyclohex-1-enyl)-4′-methoxy-2′-(trifluoromethyl)biphenyl-4-carboxylic acid] | – | – | 8.16
16 | CCNC(=O)c1ccc(-c2ccc(F)c(C3=C(CN4C(=O)O[C@H](c5cc(C(F)(F)F)cc(C(F)(F)F)c5)[C@@H]4C)CC(C)(C)CC3)c2)c(C(F)(F)F)c1 [Compound 756, 3′-(2-(((4S,5R)-5-(3,5-bis(trifluoromethyl)phenyl)-4-methyl-2-oxooxazolidin-3-yl)methyl)-4,4-dimethylcyclohex-1-enyl)-N-ethyl-4′-fluoro-2-(trifluoromethyl)biphenyl-4-carboxamide] | – | – | 8.23
